Experimental data from patent publication US20250032576A1, “CNP Therapy” (BIOMARIN PHARMACEUTICAL INC., priority 2021, published 2025).
No end group written: not given here.

Legend:
[1] = tested on: mice deficient in Nf1 in type II collagen producing cells; details: daily injections; cited from earlier work
[2] = tested on: mouse model of Cardiofaciocutaneous syndrome using a Braf mutation (p.Q241R); details: in vivo; cited from earlier work
clinical [3] = details: human, in vivo
Source text: Studies from rodent pups, growing lambs and children support the view that circulating levels of CNP products in plasma (CNP and NTproCNP) are sourced largely from growth plate or closely related tissues (Espiner 2018, supra). Measurement of any possible impact on endogenous proCNP production of administered CNP 1-37 Pro Gly (which strongly cross-reacts with CNP but not NTproCNP assay) is therefore only feasible using plasma concentrations of NTproCNP adjusted for age and sex (SDS). […] It is instructive to compare these dynamic changes in CNP with those found in short non Ach children of similar age starting daily doses of Human Growth Hormone (HGH) (Olney, et al. Clin Endocrinol (Oxf) 85:561-568, 2016). In that setting, similar inflections in AGV were associated with increase in NTproCNP (mean 11 pmol/L, delta 22% at day 21) in contrast to the concurrent fall of NTproCNP (approximately 6 pmol/L, range 3-11 pmol/L, delta-12%) at Day 29 during 15-30 μg/kg/d Vosoritide treatment in Cohorts 3 and 4. […] These kinetic responses could relate to the estimated times (approximately 20-22 days) (Sansone et al., J Pediatr Orthop 29:61-67, 2009) for recruited chondrocytes to traverse the respective zones of the expanding growth plate and populate the primary spongiosa.
This temporal constraint may relate to the early growth spurt observed in many of the children studied. […]

clinical [4] = details: human, in vivo; for Tmax: Median [range] Tmax; for Cmax: Mean (SD) Cmax
Procedure: (§1) In an ongoing Phase II study of CNP therapy in children, a group of patients age 3 to 6 months (cohort 3) were administered CNP (BMN111) at a dose of 30 μg/kg daily subcutaneously, and changes in annualized growth volume, changes in height, and skull morphology were measured.

[5] = tested on: children aged 3 to 60 months; parameters: species or system human; details: in vivo, sc
Source text: See also PCT Application No. PCT/US22/73605.

[6] = human, in vivo
Procedure: as §1

| half-life (clinical [3]) | Tmax (clinical [4]; 15 ug/kg) | Cmax (clinical [4]; 30 ug/kg) | Tmax (clinical [4]; 30 ug/kg) | Cmax (clinical [4]; sc, 15 ug/kg) | half-life (clinical [4]; sc, 15 ug/kg, Mean (SD) t1/2) | Tmax (clinical [4]; sc, 15 ug/kg) | AUC(0-t) (clinical [4]; sc, 30 ug/kg, Mean (SD) AUC0-t) | Cmax (clinical [4]; sc, 30 ug/kg) | Median [range] Tmax ([6]; 15 ug/kg) | Mean (SD) Cmax ([6]; 30 ug/kg) | Mean (SD) AUC0-t ([6]; sc, 30 ug/kg) | Molecule | ERK phosphorylation [1] | short stature [1] | body length [2] | overall adverse-event profile [5] |
| --- | --- | --- | --- | --- | --- | --- | --- | --- | --- | --- | --- | --- | --- | --- | --- | --- |
|  |  |  |  |  |  |  |  |  |  |  |  | C-type natriuretic peptide (GLSKGCFGLKLDRIGSMSGLGC; ends and bridges not checked; cysteine pairing not given here; UniProt P23582 105-126, looked up) [CNP, small, single chain peptide having a 17-amino acid loop structure at the C-terminal end] | decreased ERK phosphorylation | corrected the short stature | increases in body length |  |
| 28 min | 15 min | 10.1 ng/mL | 14 min | 4.43 ng/mL | 21.7 min | 15 min | 9.12 ng·h/mL | 14.5 ng/mL | 15.0 [7.0, 31.0] min | 13,500 (6770) pg/mL | 323,000 (129,000) pg-min/mL | CC[C@H](C)[C@@H]1NC(=O)[C@H](CCCNC(=N)N)NC(=O)[C@H](CC(=O)O)NC(=O)[C@H](CC(C)C)NC(=O)[C@H](CCCCN)NC(=O)[C@H](CC(C)C)NC(=O)CNC(=O)[C@H](Cc2ccccc2)NC(=O)[C@@H](NC(=O)CNC(=O)[C@H](CCCCN)NC(=O)[C@H](CO)NC(=O)[C@H](CC(C)C)NC(=O)CNC(=O)[C@H](CCCCN)NC(=O)[C@H](CCCCN)NC(=O)[C@H](CC(N)=O)NC(=O)[C@H](C)NC(=O)CNC(=O)[C@H](CCCCN)NC(=O)[C@H](Cc2ccc(O)cc2)NC(=O)[C@H](CCCCN)NC(=O)[C@H](CCCNC(=N)N)NC(=O)[C@H](C)NC(=O)[C@H](CC(N)=O)NC(=O)[C@@H]2CCCN2C(=O)[C@H](Cc2c[nH]cn2)NC(=O)[C@H](CCC(=O)O)NC(=O)[C@H](CCC(N)=O)NC(=O)CNC(=O)[C@@H]2CCCN2)CSSC[C@@H](C(=O)O)NC(=O)CNC(=O)[C@H](CC(C)C)NC(=O)CNC(=O)[C@H](CO)NC(=O)[C@H](CCSC)NC(=O)[C@H](CO)NC(=O)CNC1=O [Vosoritide] |  |  |  | generally mild |
